Data as given in US20210015092A1, “STABILIZATION OF WHOLE BLOOD AT ROOM TEMPERATURE” (Roche Diagnostics Operations, Inc., priority 2014, published 2021).

What was measured:
[1] = test system: MDA-MB-468 cells; assay: Isolation of viable cells after sample storage for 48 hours, Trypan blue exclusion; type: cell-based, human; settings: 48 hours at room temperature, two donors
Method: MDA-MB-468 cells were spiked into blood samples obtained from healthy individuals to result in a final concentration of 300,000 spiked cells/ml blood. The samples were processed either immediately or after storage at room temperature for 48 hours.
Immediately after sample set up and 48 hours later nucleated cells were enriched by erythrocyte lysis. […] The cells were sedimented by centrifugation at 200×g for 15 min.
From these samples the MDA-MB-468 cells were isolated using CD326 (EpCAM) Microparticles from Miltenyi (Cat No 130-061-101), MS columns and the MACS separator system (Milteny Cat. Nos. 130-042-201, 130-042-102) making use of the protocol recommended by the manufacturer.
The enriched cells were suspended in 300 μl of RPMI medium.
The viability of the cells was tested with the Trypan blue exclusion method. 10 μl of each sample was mixed with 10 μl of Trypan blue (Sigma-Aldrich T8154). The number of MDA-MB-468 cells excluding the dye was counted in a Neubauer chamber. The yield of viable cells was calculated using the cell number spiked into the blood samples as 100%.

[2] = test system: MDA-MB-468 cells; settings: blood stored 48 hours at room temperature; cell index for 101 hours
Method: MDA-MB-468 cells treated and isolated as described in Example 6 were seeded into the wells of an E-Plate 96-well device (Roche Applied Science, Cat. No. 06472451001, Roche Diagnostics GmbH Mannheim, Germany) for the Real-Time Cell Analyzer (RTCA) MP (xCELLigence system). 50 μl aliquots of cells were seeded into wells containing 50 μl of RPMI medium. Duplicates were used for analysis. The E-Plate was incubated over night at 37° C. in an incubator to allow attachment of MDA-MB-468 cells to the bottom of the E-Plate. In order to remove contaminating blood derived cells the medium was removed and cells attached to the culture plate were washed 3 times with PBS. 150 μl of fresh RPMI medium was added per well and the E-Plate transferred to the Real-Time Cell Analyzer. Cell index was measured once per hour for 101 hours.

[3] = test system: MDA-MB-468 cells; assay: Quantification of RNA from MDA-MB-468 cells isolated after 72 h sample storage; type: cell-based, human; settings: 72 hours at room temperature, GCK DNA as reference, two donors
Method: MDA-MB-468 cells were spiked into blood samples obtained from two healthy individuals at 14.4×10^6 cells/ml. From each donor four samples were prepared. […] Aliquots from these samples were processed immediately after set up, other aliquots were processed after storage at room temperature for 72 hours. MDA-MB-468 cells were isolated from blood by capturing with BreastSelectBeads from Adnagen Cat. No.: T1-508 with 1,000 μl aliquots of sample material according to the protocol recommended by the manufacturer.
The bead captured purified cells were resuspended in 1,000 μl PBS. With 200 μl aliquots RNA was isolated using the MagNA Pure LC DNA Isolation Kit—Large volume Cat No 03310515001 using the Program “DNA LV Blood_20_200” and an elution volume of 100 μl.
The RNA was transcribed into cDNA using Transcriptor First Strand cDNA Synthesis Kit Cat. No: 04897030001 in reactions of 70 μl volume, each reaction containing 12.5 μl of isolated nucleic acid. PCR was peformed with the with the LightCycler 480 Probes Master in a LightCycler 480 instrument in 20 μl reactions containing 5 μl of the cDNA samples. […]
To quantify the changes in expression level of the RNA target tested, the relative quantification method of Livak and Schmittgen was used (Livak K. J. and Schmittgen T. D., Methods 2001, 25(4) 402-408). […]

[4] = test system: MDA-MB-468 cells; assay: Preservation of cellular proteins: anti-CK5/8 immunostaining of MDA-MB-468 cells spiked into blood; type: cell-based, human; settings: EDTA blood, 48 hours at room temperature; Sivelestat 10 μg/ml, Pefabloc SC 1 mM, SkQ1 100 nM, Mito Q 100 nM, glutathione 3 mM; versus EDTA without additive
Method: Preservation of Cellular Proteins Suspended cells of MDA-MB-468, a human breast cancer cell line were spiked into blood samples obtained from healthy individuals to result in 100,000 spiked cells per ml blood. The samples were processed either immediately or after storage at room temperature for 48 hours.
Nucleated cells were enriched by erythrocytes lysis. […] After centrifugation at 200×g for 15 min, the supernatant was removed and the pellet was resuspended in 250 μl of lysis buffer. […] The cells were sedimented by centrifugation at 200×g for 15 min.
For each sample a volume of 50 μl of the cell suspension was spotted on a glass slide and air-dried. The slides were fixed in ice cold acetone for 10 min, washed with PBS twice and immersed in labeling mixture containing anti-cytokeratine K5/K8-FITC labeled antibody diluted 1:50 in PBS (cytokeratine=CK). After an incubation for 30 min in the dark the supernatant was removed. DAPI-containing mounting medium was added, the spots covered with cover slips and after a further incubation for 20 min analyzed on a Zeiss Axio Observer Microscope. The total number of nucleated cells and the CK 5/8 positive cells were analyzed with the Assay Builder Software from Zeiss.
MDA-MB-468 cells were spiked into blood samples obtained from healthy individuals to result in a concentration of 100,000 spiked cells/ml blood. The samples were processed either immediately or after storage at room temperature for 48 hours. […] Sample 3 was additionally supplemented with the mitochondria targeted antioxidant SS-31 (1 μM), sample 4 with glutathione (0.75 mM). Nucleated cells were enriched by erythrocytes lysis and processed as described in Example 1.

## O=C(O)CN(CCN(CC(=O)O)CC(=O)O)CC(=O)O [EDTA]
[1]
  cell viability after storage, in words: negatively affected
[2]
  cell growth in culture of cells isolated from stored blood (FIG. 5): not culturable anymore
[3]
  change of RNA levels of isolated MDA-MB-468 cells (FIG. 4): strong decline in RNA levels

## COC1=C(OC)C(=O)C(CCCCCCCCCC[P+](c2ccccc2)(c2ccccc2)c2ccccc2)=C(C)C1=O [MitoQ, (10-(2,5-dihydroxy-3,4-dimethoxy-6-methylphenyl)decyl) triphenylphosphonium and (10-(4,5-dimethoxy-2-methyl-3,6-dioxocyclohexa-1,4-dienyl)decyl) triphenylphosphonium]
[4]
  percentage of MDA-MB-468 cells detected by immunostaining with Anti-CK5/8 (FIG. 1): Particular positive effects

## Cl.NCCc1ccc(S(=O)(=O)F)cc1 [Pefabloc SC, 4-(2-aminoethyl) benzenesulfonyl fluoride hydrochloride]
[4]
  percentage of MDA-MB-468 cells detected by immunostaining with Anti-CK5/8 (FIG. 1): higher signals than the control sample without additive

## CC(C)(C)C(=O)Oc1ccc(S(=O)(=O)Nc2ccccc2C(=O)NCC(=O)O)cc1 [Sivelestat]
[4]
  percentage of MDA-MB-468 cells detected by immunostaining with Anti-CK5/8 (FIG. 1): higher signals than the control sample without additive

## CC1=C(C)C(=O)C(CCCCCCCCCC[P+](c2ccccc2)(c2ccccc2)c2ccccc2)=CC1=O [SkQ1, 10-(6′-plastoquinonyl) decyltriphenylphosphonium]
[4]
  percentage of MDA-MB-468 cells detected by immunostaining with Anti-CK5/8 (FIG. 1): Particular positive effects

## N[C@@H](CCC(=O)N[C@@H](CS)C(=O)NCC(=O)O)C(=O)O [glutathione]
[4]
  percentage of MDA-MB-468 cells detected by immunostaining with Anti-CK5/8 (FIG. 1): further positive effect
